{"source": "patent US20220347085A1", "about": "“REPELLENT COMPOSITION AND USES” (Université Bourgogne, priority 2019, published 2022)", "tested_on": "Drosophila suzukii", "experiment": "Anesthesia test, Drosophila suzukii", "format": "in vivo", "conditions": "female flies", "method": "The devices used were similar to the devices for studying the courtship (example 1 above), except for the volume of the space into which the files were introduced, which was 45.24 or 22.62 cm^3. 9 discs of filter paper (Whatman, filter paper 42), each soaked in 10 μl of a composition comprising butyric acid and/or propionic acid and/or a derivative of propionic acid diluted in paraffin oil were deposited in the device. The different compositions used comprised, respectively, 2% propionic acid or 2% butyric acid or 5% ethyl propanoate or 10% ethyl propanoate or 30% ethyl propanoate. For each composition, the number of flies was, respectively, 30 and 24 males, 30 and 11 females for Drosophila melanogaster, and 24, 16 and 4 males, 28, 26, 6, 5 and 4 females for Drosophila suzukii. In order to avoid any contact of the flies with the soaked disks of paper, a gauze (netting) was arranged above said papers. The drosophilae could move freely on said gauze. The quantity of compound, butyric acid or propionic acid, or of ethyl propanoate (odor) volatilized in the behavior chamber was equivalent to that of the device used for the courtship. Likewise, the flies were never in direct contact with the composition (no taste perception), only with the volatile particles (olfactory perception). The flies tested were introduced simultaneously, by group, into the enclosure. Their behavior was filed for 10 minutes, and a time required for leading to anesthesia was calculated over this period, depending on the concentration of butyric acid or propionic acid or ethyl propanoate used. The flies were considered anesthetized when they stopped moving and fell on their side.", "data": [{"smiles": "CCOC(=O)CC", "note": "[ethyl propanoate]", "values": [{"measurement": "time elapsed leading to anesthesia", "setting": "5% in paraffin oil", "result": "approximately 6 minutes"}, {"measurement": "time elapsed leading to anesthesia", "setting": "10% in paraffin oil", "result": "approximately 4 minutes"}, {"measurement": "time elapsed leading to anesthesia", "setting": "30% in paraffin oil", "result": "2 to 3", "unit": "min"}]}]}
